Legend:
[1] = biological target: Histamine H2 receptor (Homo sapiens, UniProt P25021); type: cell membranes, CHO-K1, Membrane; further: in other assays of this panel Not Active means under 50% inhibition at 10 µM
[2] = biological target: T1, Muscarinic acetylcholine receptor M4 (Homo sapiens, UniProt P08173); type: cell membranes, CHO-K1, Membrane; settings: for Ki: read-out: Ki; on all read-outs here: in other assays of this panel Not Active means under 50% inhibition at 10 µM
T1 sequence (P08173 whole entry): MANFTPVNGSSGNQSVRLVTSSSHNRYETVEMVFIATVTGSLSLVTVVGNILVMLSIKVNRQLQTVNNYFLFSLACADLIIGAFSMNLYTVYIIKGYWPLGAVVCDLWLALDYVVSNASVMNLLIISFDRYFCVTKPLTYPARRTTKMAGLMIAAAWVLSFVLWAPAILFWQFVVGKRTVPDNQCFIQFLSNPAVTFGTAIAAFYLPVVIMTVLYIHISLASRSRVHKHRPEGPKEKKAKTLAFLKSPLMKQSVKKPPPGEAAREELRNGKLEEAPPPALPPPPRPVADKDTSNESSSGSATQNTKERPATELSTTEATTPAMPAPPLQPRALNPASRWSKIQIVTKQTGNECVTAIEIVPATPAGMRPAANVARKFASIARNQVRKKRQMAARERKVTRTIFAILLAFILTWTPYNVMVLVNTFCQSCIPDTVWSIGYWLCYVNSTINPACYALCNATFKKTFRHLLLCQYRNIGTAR

[3] = biological target: Mu-type opioid receptor (Homo sapiens, UniProt P35372); experiment: DRUGMATRIX: Opiate mu (OP3, MOP) radioligand binding (ligand: [3H] Diprenorphine); type: cell membranes, CHO-K1, Membrane; settings: Not Active = under 50% inhibition at 10 µM
[4] = DRUGMATRIX: Glutamate, AMPA radioligand binding (ligand: [3H] AMPA); type: cell membranes, Rattus norvegicus, Wistar, Cerebral cortex, Membrane; settings: Not Active = under 50% inhibition at 10 µM
[5] = biological target: Melanocortin receptor 4 (Homo sapiens, UniProt P32245); type: cell membranes, Membrane; settings: hek293; further: in other assays of this panel Not Active means under 50% inhibition at 10 µM
[6] = biological target: Mitogen-activated protein kinase 3 (Homo sapiens, UniProt P27361); experiment: DRUGMATRIX: Protein Serine/Threonine Kinase, ERK1 enzyme inhibition (substrate: Myelin Basic Protein); parameters: species or system Escherichia coli; settings: Not Active = under 50% inhibition at 10 µM
Chain of Mitogen-activated protein kinase 3 (P27361 whole entry): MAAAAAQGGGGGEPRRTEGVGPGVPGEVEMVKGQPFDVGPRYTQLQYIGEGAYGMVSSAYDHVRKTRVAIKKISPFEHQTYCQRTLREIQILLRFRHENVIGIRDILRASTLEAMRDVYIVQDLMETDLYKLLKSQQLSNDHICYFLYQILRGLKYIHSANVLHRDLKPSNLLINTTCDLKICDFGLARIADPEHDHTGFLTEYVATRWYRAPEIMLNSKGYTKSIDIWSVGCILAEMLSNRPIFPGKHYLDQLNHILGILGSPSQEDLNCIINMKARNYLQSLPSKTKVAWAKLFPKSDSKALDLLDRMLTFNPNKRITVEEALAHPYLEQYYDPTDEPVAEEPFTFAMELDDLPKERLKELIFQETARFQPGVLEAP

Chain of Histamine H2 receptor (P25021 whole entry): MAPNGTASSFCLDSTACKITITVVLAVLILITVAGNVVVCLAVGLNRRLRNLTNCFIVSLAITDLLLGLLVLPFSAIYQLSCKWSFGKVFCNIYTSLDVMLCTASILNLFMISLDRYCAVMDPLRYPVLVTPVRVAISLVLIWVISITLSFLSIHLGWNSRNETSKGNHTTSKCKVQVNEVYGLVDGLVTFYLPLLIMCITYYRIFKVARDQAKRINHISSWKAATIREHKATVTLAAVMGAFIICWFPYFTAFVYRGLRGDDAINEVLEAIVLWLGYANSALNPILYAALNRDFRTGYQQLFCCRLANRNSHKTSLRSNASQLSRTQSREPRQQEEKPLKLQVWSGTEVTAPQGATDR
Chain of Mu-type opioid receptor (P35372 whole entry): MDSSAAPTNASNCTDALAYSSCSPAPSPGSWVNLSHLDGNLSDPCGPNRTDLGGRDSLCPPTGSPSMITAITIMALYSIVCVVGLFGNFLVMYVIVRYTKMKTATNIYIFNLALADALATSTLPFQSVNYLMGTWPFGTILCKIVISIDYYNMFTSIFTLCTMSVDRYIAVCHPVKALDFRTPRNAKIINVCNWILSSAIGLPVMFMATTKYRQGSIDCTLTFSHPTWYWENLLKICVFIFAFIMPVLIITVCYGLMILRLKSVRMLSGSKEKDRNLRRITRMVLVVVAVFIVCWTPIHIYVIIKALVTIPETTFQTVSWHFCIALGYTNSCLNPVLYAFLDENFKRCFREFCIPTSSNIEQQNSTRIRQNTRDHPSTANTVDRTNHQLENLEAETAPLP
Chain of Melanocortin receptor 4 (P32245 whole entry): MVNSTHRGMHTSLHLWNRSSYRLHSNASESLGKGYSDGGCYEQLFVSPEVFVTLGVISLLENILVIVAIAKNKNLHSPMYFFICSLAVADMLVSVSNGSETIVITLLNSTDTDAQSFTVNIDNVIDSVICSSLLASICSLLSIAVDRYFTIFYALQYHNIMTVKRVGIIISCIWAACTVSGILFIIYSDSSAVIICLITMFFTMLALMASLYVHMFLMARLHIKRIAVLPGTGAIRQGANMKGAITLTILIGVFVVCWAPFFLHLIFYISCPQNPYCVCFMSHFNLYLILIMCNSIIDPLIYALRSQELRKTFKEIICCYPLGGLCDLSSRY

Row | Compound | IC50 ([1]; cho-k1) | IC50 ([2]; cho-k1) | IC50 ([3]; cho-k1) | IC50 [4] | Ki [4] | IC50 [5] | IC50 [6] | Ki [3] | IC50 ([3]; read-out: IC50) | IC50 ([1]; read-out: IC50) | Ki ([1]; read-out: Ki) | IC50 ([2]; read-out: IC50) | Ki [2]
1 | CN1C[C@@H]2C[C@H]1CN2c1cc2c(cc1F)c(=O)c(C(=O)O)cn2C1CC1 [DANOFLOXACIN] | Not Active | Not Active | Not Active | Not Active | Not Active | Not Active | Not Active |  |  |  |  |  | 
2 | COc1cccc2c1C(=O)c1c(O)c3c(c(O)c1C2=O)C[C@@](O)(C(C)=O)C[C@@H]3O[C@H]1C[C@H](N)[C@H](O)[C@H](C)O1 [DAUNORUBICIN] | Not Active | Not Active | Not Active | Not Active | Not Active | Not Active | Not Active |  |  |  |  |  | 
3 | O=C(O)c1cc(-c2ccc(F)cc2F)ccc1O [DIFLUNISAL] | Not Active | Not Active | Not Active | Not Active | Not Active | Not Active | Not Active |  |  |  |  |  | 
4 | C[S+](C)[O-] [DIMETHYL SULFOXIDE] | Not Active | Not Active | Not Active | Not Active | Not Active | Not Active | Not Active |  |  |  |  |  | 
5 | CC1=NN(c2ccccc2)C(=O)C1 [EDARAVONE] | Not Active | Not Active | Not Active | Not Active | Not Active | Not Active | Not Active |  |  |  |  |  | 
6 | CC(C)C[C@H]1C(=O)N2CCC[C@H]2[C@]2(O)O[C@](NC(=O)[C@@H]3C=C4c5cccc6[nH]cc(c56)C[C@H]4N(C)C3)(C(C)C)C(=O)N12 [ERGOCRYPTINE] | Not Active | Not Active |  | Not Active | Not Active | Not Active | Not Active | 985 nM | 2430 nM |  |  |  | 
7 | C[C@]12CC[C@@H]3c4ccc(O)cc4CC[C@H]3[C@@H]1C[C@@H](O)[C@@H]2O [ESTRIOL] | Not Active | Not Active | Not Active | Not Active | Not Active | Not Active | Not Active |  |  |  |  |  | 
8 | C#C[C@]1(O)CC[C@H]2[C@@H]3CCC4=CC(=O)CC[C@]4(C)[C@H]3CC[C@@]21C [ETHISTERONE] | Not Active | Not Active | Not Active | Not Active | Not Active | Not Active | Not Active |  |  |  |  |  | 
9 | CC(O)(P(=O)(O)O)P(=O)(O)O [ETIDRONIC ACID] | Not Active | Not Active | Not Active | Not Active | Not Active | Not Active | Not Active |  |  |  |  |  | 
10 | CC(C)(C(=O)O)c1ccc(C(O)CCCN2CCC(C(O)(c3ccccc3)c3ccccc3)CC2)cc1 (stereo not drawn) [FEXOFENADINE] | Not Active | Not Active | Not Active | Not Active | Not Active | Not Active | Not Active |  |  |  |  |  | 
11 | CN1CCN(c2c(F)cc3c(=O)c(C(=O)O)cn(CCF)c3c2F)CC1 [FLEROXACIN] | Not Active | Not Active | Not Active | Not Active | Not Active | Not Active | Not Active |  |  |  |  |  | 
12 | O=c1[nH]c(=O)n([C@H]2C[C@H](O)[C@@H](CO)O2)cc1F [FLOXURIDINE] | Not Active | Not Active | Not Active | Not Active | Not Active | Not Active | Not Active |  |  |  |  |  | 
13 | COC(=O)Nc1nc2cc(C(=O)c3ccc(F)cc3)ccc2[nH]1 [FLUBENDAZOLE] | Not Active | Not Active | Not Active | Not Active | Not Active | Not Active | Not Active |  |  |  |  |  | 
14 | CC(=O)OCC(=O)[C@@]1(O)CC[C@H]2[C@@H]3CCC4=CC(=O)CC[C@]4(C)[C@@]3(F)[C@@H](O)C[C@@]21C [FLUDROCORTISONE ACETATE] | Not Active | Not Active | Not Active | Not Active | Not Active | Not Active | Not Active |  |  |  |  |  | 
15 | CCOC(=O)c1ncn2c1CN(C)C(=O)c1cc(F)ccc1-2 [FLUMAZENIL] | Not Active | Not Active | Not Active | Not Active | Not Active | Not Active | Not Active |  |  |  |  |  | 
16 | CC(=O)OCC(=O)[C@@]12OC(C)(C)O[C@@H]1C[C@H]1[C@@H]3C[C@H](F)C4=CC(=O)C=C[C@]4(C)[C@@]3(F)[C@@H](O)C[C@@]12C [FLUOCINONIDE] | Not Active | Not Active | Not Active | Not Active | Not Active | Not Active | Not Active |  |  |  |  |  | 

Row | Compound | IC50 ([1]; cho-k1) | IC50 ([2]; cho-k1) | IC50 ([3]; cho-k1) | IC50 [4] | Ki [4] | IC50 [5] | IC50 [6] | Ki [3] | IC50 ([3]; read-out: IC50) | IC50 ([1]; read-out: IC50) | Ki ([1]; read-out: Ki) | IC50 ([2]; read-out: IC50) | Ki [2]
17 | O=C(O)P(=O)(O)O [FOSCARNET] | Not Active | Not Active | Not Active | Not Active | Not Active | Not Active | Not Active |  |  |  |  |  | 
18 | Cc1ccc(C)c(OCCCC(C)(C)C(=O)O)c1 [GEMFIBROZIL] | Not Active | Not Active | Not Active | Not Active | Not Active | Not Active | Not Active |  |  |  |  |  | 
19 | O=c1c(-c2ccc(O)cc2)coc2cc(O)cc(O)c12 [GENISTEIN] | Not Active | Not Active | Not Active | Not Active | Not Active | Not Active | Not Active |  |  |  |  |  | 
20 | CCC1=C(C)CN(C(=O)NCCc2ccc(S(=O)(=O)NC(=O)N[C@H]3CC[C@H](C)CC3)cc2)C1=O [GLIMEPIRIDE] | Not Active | Not Active | Not Active | Not Active | Not Active | Not Active | Not Active |  |  |  |  |  | 
21 | Nc1cc(-c2ccncc2)c[nH]c1=O [INAMRINONE] | Not Active | Not Active | Not Active | Not Active | Not Active | Not Active | Not Active |  |  |  |  |  | 
22 | CCCCC1=NC2(CCCC2)C(=O)N1Cc1ccc(-c2ccccc2-c2nnn[nH]2)cc1 [IRBESARTAN] | Not Active | Not Active | Not Active | Not Active | Not Active | Not Active | Not Active |  |  |  |  |  | 
23 | CN1CCC(=C2c3ccccc3CC(=O)c3sccc32)CC1 [KETOTIFEN] |  |  | Not Active | Not Active | Not Active | Not Active | Not Active |  |  | 4130 nM | 4060 nM | 1010 nM | 141 nM
24 | N[C@@H](Cn1ccc(=O)c(O)c1)C(=O)O [L-MIMOSINE] | Not Active | Not Active | Not Active | Not Active | Not Active | Not Active | Not Active |  |  |  |  |  | 
25 | C[N+](C)(C)C[C@H](O)CC(=O)[O-] [LEVOCARNITINE] | Not Active | Not Active | Not Active | Not Active | Not Active | Not Active | Not Active |  |  |  |  |  | 
26 | C[C@H]1COc2c(N3CCN(C)CC3)c(F)cc3c(=O)c(C(=O)O)cn1c23.C[C@H]1COc2c(N3CCN(C)CC3)c(F)cc3c(=O)c(C(=O)O)cn1c23.O [LEVOFLOXACIN] | Not Active | Not Active | Not Active | Not Active | Not Active | Not Active | Not Active |  |  |  |  |  | 
27 | CCn1cc(C(=O)O)c(=O)c2cc(F)c(N3CCNC(C)C3)c(F)c21 (stereo not drawn) [LOMEFLOXACIN] | Not Active | Not Active | Not Active | Not Active | Not Active | Not Active | Not Active |  |  |  |  |  | 
28 | CN1CCCC(CN2c3ccccc3Sc3ccccc32)C1 (stereo not drawn) [MEPAZINE] | Not Active |  | Not Active | Not Active | Not Active | Not Active | Not Active |  |  |  |  | 137 nM | 19 nM
29 | Cc1cccc(C)c1NC(=O)C1CCCCN1C (stereo not drawn) [MEPIVACAINE] | Not Active | Not Active | Not Active | Not Active | Not Active | Not Active | Not Active |  |  |  |  |  | 
30 | CN(C)C(=N)NC(=N)N [METFORMIN] | Not Active | Not Active | Not Active | Not Active | Not Active | Not Active | Not Active |  |  |  |  |  | 
31 | CC(C)(C)NCC(O)COc1cccc2c1CC(O)C(O)C2 (stereo not drawn) [NADOLOL] | Not Active | Not Active | Not Active | Not Active | Not Active | Not Active | Not Active |  |  |  |  |  | 
32 | C[C@@H]1C/C=C/C=C/C=C/C=C/[C@H](O[C@@H]2O[C@H](C)[C@@H](O)[C@H](N)[C@@H]2O)C[C@@H]2O[C@](O)(C[C@@H](O)C[C@H]3O[C@@H]3/C=C/C(=O)O1)C[C@H](O)[C@H]2C(=O)O [NATAMYCIN] | Not Active | Not Active | Not Active | Not Active | Not Active | Not Active | Not Active |  |  |  |  |  | 
